The source of these data is ChEMBL document CHEMBL1201862, “PubChem BioAssay data set” (2004).

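Each compound was tested at five concentrations against cells in 96-well plates for 48 hours. GI50 = concentration required for 50% inhibition of growth.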 Calls of active or inactive are those of the source. No stated cut-off is given here; in the data, active = GI50 up to about 1.1 µM and inactive = higher.

Some test systems named below: ACHN; BT-549; CAKI-1; CCRF-CEM; EKVX; HCC 2998; HCT-116; MDA-MB-435; NCI-H226; NCI-H460; NCI-H522; OVCAR-5; RXF 393; SK-MEL-2; SK-MEL-5; T47D; HOP-92; NCI/ADR-RES; UACC-257.
Assay in all cases: NCI-60 cell line screen, 48 h

Take `COc1cc2c(c(OC)c1OC)-c1ccc(SC)cc1C(=O)CC2`: the GI50 is < 0.01 µM (active) with ACHN; > 100 µM (inactive) with BT-549; < 0.0227 µM (active) with CAKI-1; < 0.01 µM (active) with CCRF-CEM; < 0.0382 µM (active) in the assay on EKVX; < 0.01 µM (active) in the assay with HCC 2998. In addition, the GI50 in the assay on HCT-116 was < 0.01 µM (active); with MDA-MB-435 it was < 0.01 µM (active); in the assay with NCI-H226, < 0.01 µM (active); in the assay with NCI-H460, < 0.01 µM (active); in the assay on NCI-H522, < 0.01 µM (active); with OVCAR-5, > 100 µM (inactive). Moreover, the GI50 with RXF 393 is 66.8 µM (inactive); in the assay with SK-MEL-2 it was > 100 µM (inactive); with SK-MEL-5 it was < 0.01 µM (active); in the assay on T47D, > 100 µM (inactive).

Turning to `Nc1nc(N)c2c(Cl)c(CNc3ccc(C(=O)NC(CC(=O)O)C(=O)O)cc3)ccc2n1` (stereo unspecified), the GI50 in the assay on ACHN was < 0.01 µM (active); in the assay on BT-549 it was < 0.01 µM (active); with CAKI-1 it was < 0.01 µM (active); in the assay on CCRF-CEM, < 0.01 µM (active); in the assay with EKVX, < 0.01 µM (active); in the assay on HCC 2998 it was > 100 µM (inactive). The GI50 in the assay on HCT-116 is 10.7 µM (inactive); in the assay with HOP-92 it was 0.043 µM (active); in the assay with MDA-MB-435, < 0.01 µM (active); with NCI-H460, < 0.01 µM (active); in the assay with NCI-H522, < 0.01 µM (active); with NCI/ADR-RES, < 0.01 µM (active). Also, the GI50 is < 0.01 µM (active) in the assay on OVCAR-5, > 100 µM (inactive) with SK-MEL-2, < 0.01 µM (active) in the assay with SK-MEL-5 and > 100 µM (inactive) in the assay on T47D.

Turning to `CCOC(=O)c1cc2c(ccc3cc(C(=O)OCC)[nH]c32)[nH]1`, the GI50 in the assay on ACHN is 55.5 µM (inactive); in the assay with BT-549, 52.6 µM (inactive); in the assay on CAKI-1, 29 µM (inactive); with CCRF-CEM, 27.8 µM (inactive); in the assay with EKVX, > 100 µM (inactive); in the assay on HCC 2998 it was 99.8 µM (inactive). Besides, the GI50 with HCT-116 was 41.9 µM (inactive); in the assay with HOP-92 it was 78.7 µM (inactive); in the assay on MDA-MB-435, 15.3 µM (inactive); with NCI-H460, 43.9 µM (inactive); in the assay on NCI-H522 it was 67.1 µM (inactive); in the assay with OVCAR-5, > 100 µM (inactive). In addition, the GI50 is 15.8 µM (inactive) in the assay with RXF 393; > 100 µM (inactive) with SK-MEL-2; 25.8 µM (inactive) with SK-MEL-5; 38 µM (inactive) in the assay on T47D; > 100 µM (inactive) in the assay on UACC-257.

Consider `CC(C)(C)OC(=O)Cn1ncn(NC(=O)Cc2ccccc2)c1=O`, for which the GI50 with ACHN, with BT-549, in the assay on CAKI-1, in the assay on CCRF-CEM, in the assay on EKVX and with HCC 2998 was > 10 µM (inactive) in each case. In addition, the GI50 in the assay on HCT-116, in the assay on HOP-92, with MDA-MB-435, in the assay on NCI-H226, in the assay with NCI-H460 and in the assay with NCI-H522 was > 10 µM (inactive) each time. Also, the GI50 in the assay with NCI/ADR-RES, in the assay on OVCAR-5, in the assay on SK-MEL-5, with T47D and in the assay on UACC-257 was > 10 µM (inactive) throughout.

As for `O=c1[nH]c2ccsc2c(=O)n1COCc1ccccc1`, the GI50 in the assay on ACHN, in the assay with BT-549, with CAKI-1, in the assay on CCRF-CEM, in the assay on EKVX and in the assay with HCC 2998 was > 100 µM (inactive) each time. In addition, the GI50 in the assay with HCT-116 is > 100 µM (inactive); in the assay on HOP-92, 79.8 µM (inactive); with MDA-MB-435 it was > 100 µM (inactive); with NCI-H226 it was > 100 µM (inactive); in the assay with NCI-H460, > 100 µM (inactive); with NCI-H522, > 100 µM (inactive). For the same compound, the GI50 with NCI/ADR-RES, in the assay on OVCAR-5, in the assay on RXF 393, with SK-MEL-2, in the assay on SK-MEL-5 and in the assay with UACC-257 was > 100 µM (inactive) throughout.

On to `COc1ccc(C2SCC(=O)N2NC(=O)c2ccc(NC(C)=O)cc2)c(OC)c1` (stereo unspecified), for which the GI50 in the assay on ACHN, in the assay with BT-549, in the assay with EKVX, in the assay on HCC 2998, in the assay with HCT-116 and in the assay with HOP-92 was > 100 µM (inactive) in each case. The GI50 in the assay on MDA-MB-435, in the assay on NCI-H226, in the assay on NCI-H460, in the assay with NCI/ADR-RES, in the assay with OVCAR-5 and with RXF 393 was > 100 µM (inactive) throughout. Also, the GI50 was > 100 µM (inactive) with SK-MEL-2, > 100 µM (inactive) in the assay with SK-MEL-5, 93.3 µM (inactive) in the assay on T47D and > 100 µM (inactive) with UACC-257.

Regarding `CC(C)C[P+](c1ccccc1)(c1ccccc1)c1ccccc1`, the GI50 in the assay on ACHN is 20.2 µM (inactive); in the assay on BT-549, 4.75 µM (inactive); in the assay with CAKI-1 it was 10.5 µM (inactive); with CCRF-CEM, 0.419 µM (active); in the assay on EKVX, 3.1 µM (inactive); in the assay with HCC 2998, 8.57 µM (inactive). In addition, the GI50 was 4.3 µM (inactive) in the assay with HCT-116; 3.32 µM (inactive) in the assay on HOP-92; 2.87 µM (inactive) in the assay on MDA-MB-435; 8.79 µM (inactive) in the assay with NCI-H226; 5.89 µM (inactive) with NCI-H460; 3.97 µM (inactive) in the assay with NCI-H522. For the same compound, the GI50 in the assay on NCI/ADR-RES was > 100 µM (inactive); in the assay on OVCAR-5, 73.6 µM (inactive); in the assay on SK-MEL-2 it was 4.36 µM (inactive); with SK-MEL-5, 2.86 µM (inactive); with T47D it was 11.8 µM (inactive); with UACC-257 it was 0.342 µM (active).

Consider `CC1=CC(=O)/C(=C/NC(=S)c2ccncc2)C(=O)O1`, for which the GI50 in the assay on ACHN was > 100 µM (inactive); in the assay with BT-549 it was > 100 µM (inactive); with CAKI-1 it was > 100 µM (inactive); with CCRF-CEM, > 100 µM (inactive); with EKVX, 46.7 µM (inactive); in the assay on HCC 2998, > 100 µM (inactive). Further, the GI50 was > 100 µM (inactive) in the assay on HCT-116; > 100 µM (inactive) with HOP-92; > 100 µM (inactive) in the assay on MDA-MB-435; 68.1 µM (inactive) with NCI-H226; > 100 µM (inactive) in the assay on NCI-H460; > 100 µM (inactive) in the assay with NCI-H522. For the same compound, the GI50 with NCI/ADR-RES, in the assay with OVCAR-5, in the assay on RXF 393, in the assay with SK-MEL-2, in the assay on SK-MEL-5 and in the assay with UACC-257 was > 100 µM (inactive) in each case.

`CCOC(=O)Cc1csc2[n+]1C(=O)/C(=C/c1cccc(OC)c1O)S2`: the GI50 in the assay on ACHN is 69.5 µM (inactive); in the assay with BT-549 it was 13.8 µM (inactive); with CAKI-1, 59.2 µM (inactive); in the assay with EKVX, 74.1 µM (inactive); in the assay with HCC 2998, 32.2 µM (inactive); in the assay on HCT-116 it was 45.5 µM (inactive). Moreover, the GI50 is 93.8 µM (inactive) in the assay on HOP-92; 11.9 µM (inactive) in the assay with MDA-MB-435; > 100 µM (inactive) in the assay on NCI-H226; 41.9 µM (inactive) in the assay with NCI-H460; 47 µM (inactive) in the assay on NCI/ADR-RES; > 100 µM (inactive) in the assay on OVCAR-5. The GI50 in the assay on SK-MEL-2 is 45 µM (inactive); with SK-MEL-5 it was 42.9 µM (inactive); in the assay with T47D it was 36.3 µM (inactive); with UACC-257, 61.8 µM (inactive).

Take `C#C/C=C\CCCC/C=C\C#CC#CCCCC#CC#C[C@H](COS(=O)(=O)O)OS(=O)(=O)O`: the GI50 in the assay on ACHN, in the assay with BT-549, in the assay with CAKI-1, with CCRF-CEM, in the assay on EKVX and in the assay with HCC 2998 was > 100 µM (inactive) in each case. Besides, the GI50 in the assay on HCT-116, in the assay on HOP-92, in the assay with MDA-MB-435, in the assay on NCI-H460, with NCI-H522 and in the assay with NCI/ADR-RES was > 100 µM (inactive) in each case. For the same compound, the GI50 in the assay on OVCAR-5, in the assay on SK-MEL-2, with SK-MEL-5, in the assay on T47D and in the assay on UACC-257 was > 100 µM (inactive) throughout.

`C=C1C(C[C@@H]2O[C@H]3C[C@H]4O[C@@]5(C[C@@H]6O[C@]7(C[C@H](C)[C@@H]8O[C@@H]9CC(C(O)CO)O[C@@H]9C[C@@H]8O7)C[C@H](C)[C@@H]6O5)C[C@H]4O[C@H]3[C@H](C)[C@H]2O)O[C@@H](CC[C@@H]2O[C@@H](CC[C@@]34CC5O[C@H]6C(O[C@H]7CC[C@H](CC(=O)OC)O[C@@H]7[C@@H]6O3)[C@H]5O4)CC2=C)C[C@H]1C` (stereo partly specified): the GI50 was 0.000658 µM (active) in the assay on ACHN; < 0.0001 µM (active) with BT-549; 0.000286 µM (active) with CAKI-1; < 0.0001 µM (active) in the assay with CCRF-CEM; 0.000405 µM (active) with EKVX; < 0.0001 µM (active) in the assay on HCC 2998. For the same compound, the GI50 with HCT-116 is < 0.0001 µM (active); in the assay with MDA-MB-435 it was < 0.0001 µM (active); in the assay with NCI-H226, 0.000174 µM (active); in the assay with NCI-H460, < 0.0001 µM (active); with NCI-H522, < 0.0001 µM (active); in the assay with NCI/ADR-RES, 0.00466 µM (active). For the same compound, the GI50 was 0.00142 µM (active) in the assay on OVCAR-5; < 0.0001 µM (active) with RXF 393; < 0.0001 µM (active) in the assay with SK-MEL-5; 0.01 µM (active) in the assay with T47D; < 0.0001 µM (active) in the assay on UACC-257.
